The text below walks through data of patent publication EP1790345A1, “Triazin beta-secretase inhibitors” (Esbatech AG, priority 2005, dated 2007).

As a reminder, the IC50 is the concentration that inhibits the measured activity by half.

The target in one experiment is recombinant BACE enzyme (Homo sapiens, UniProt P56817). The experiment can be described thus: BACE FRET assay (in vitro). It counts as biochemical. As to conditions: concentration that reduces the activity of BACE to 50 %. The text has this:
(§1) The tests performed were • a) Aβ1-40 (Sw) bioassay, which measures the amount of the amyoid peptide Aβ1-40 in the supernatant of Swedish APP695 transgenic HEK293 cells in the presence of the various BACE inhibitors via ELISA (enzyme-linked immunosorbent assay). In the table, the inhibitory concentration that reduces Aβ1-40 secretion to 50 % is indicated (IC50), or the % reduction of Aβ1-40 secretion at the indicated concentration. • b) FRET assay, which measures the activity of recombinant BACE enzyme in the presence of the various BACE inhibitors via a FRET (fluorescence resonance energy transfer)-based readout. In the table, the inhibitory concentration that reduces the activity of BACE to 50 % is indicated (IC50), or the % reduction of the activity of BACE at the indicated concentration. • c) An additional in silico test was performed for the compounds listed in Tables 1 to 3. The compounds were docked with the FFLD approach (Budin et al., Biol. Chem. 382, 1365-1372, 2001) and their binding energy was evaluated with the LIECE method (Huang and Caflisch, J. Med. Chem. 47, 5791-5797, 2004). The affinity evaluated with LIECE is in the low micromolar range for most of these compounds.

Experiment [1] concerns Swedish APP695 transgenic HEK293 cells. In words: Aβ1-40 (Sw) bioassay (ELISA of Aβ1-40 in cell supernatant). As to conditions: for % reduction of Aβ1-40 secretion: Swedish APP695 transgenic HEK293 cells, ELISA; for IC50: Homo sapiens, HEK293, concentration that reduces Aβ1-40 secretion to 50 %, read-out: IC50 Aβ1-40(sw) bioassay (cell-based). The format is cell-based.
Excerpt: as §1
(In general: ELISA stands for enzyme-linked immunosorbent assay.)

Sequence of recombinant BACE enzyme (P56817 46-501, species assumed): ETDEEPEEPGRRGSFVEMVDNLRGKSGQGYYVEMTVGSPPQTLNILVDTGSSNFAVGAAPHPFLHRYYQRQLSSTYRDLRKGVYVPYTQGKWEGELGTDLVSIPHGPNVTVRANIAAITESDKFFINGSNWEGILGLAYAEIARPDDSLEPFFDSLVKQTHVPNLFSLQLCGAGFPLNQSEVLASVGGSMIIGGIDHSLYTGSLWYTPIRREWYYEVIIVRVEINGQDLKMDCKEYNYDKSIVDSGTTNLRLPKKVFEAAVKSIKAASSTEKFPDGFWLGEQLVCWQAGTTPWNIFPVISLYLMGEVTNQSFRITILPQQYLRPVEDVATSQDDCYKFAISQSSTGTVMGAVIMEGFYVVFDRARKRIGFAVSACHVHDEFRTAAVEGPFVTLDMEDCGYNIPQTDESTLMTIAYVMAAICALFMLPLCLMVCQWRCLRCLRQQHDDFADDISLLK

`Cc1ccc(Nc2nc(N/N=C/c3cc(Br)cc(Br)c3O)nc(N3CCOCC3)n2)cc1` [Compound 205C07]: the IC50 on recombinant BACE enzyme was determined as 48.1 µM. The “% reduction of Aβ1-40 secretion” value in experiment [1] (at 50 µM) was “No (50 µM)”. On to `O=C(O)c1cc(-c2ccc(/C=N/Nc3nc(Nc4ccccc4)nc(N4CCCCC4)n3)o2)ccc1Cl` [Compound 250A05], for which the IC50 is 142 µM at recombinant BACE enzyme and 10 to 20 µM in experiment [1]. Take `Cc1ccc(Nc2nc(N/N=C/c3cc(Br)cc(Br)c3O)nc(N3CCOCC3)n2)cc1Cl` [Compound 206E02]: the IC50 on recombinant BACE enzyme came to 20.6 µM. The “% reduction of Aβ1-40 secretion” value in experiment [1] (at 50 µM) is listed as 27% (50 µM).

Regarding `COc1ccc(Nc2nc(NN=Cc3ccc(-c4cccc(C(=O)O)c4)o3)nc(Nc3ccccc3)n2)cc1` [Compound 250B04], the IC50 at recombinant BACE enzyme was 66.6 µM; in experiment [1] it was 10 to 20 µM. Consider `CNc1nc(N/N=C/c2ccc(-c3ccc([N+](=O)[O-])cc3)o2)nc(Nc2ccccc2)n1` [Compound 251C08], for which, on recombinant BACE enzyme, the half-inhibitory concentration (IC50) was found to be 24.4 µM.

Take `Oc1c(Br)cc(/C=N/Nc2nc(N3CCCCC3)nc(N3CCCCC3)n2)c(O)c1Br` [Compound 251G09]: at recombinant BACE enzyme, the IC50 came to 170 µM. For `O=C(O)c1cc(-c2ccc(C=NNc3nc(Nc4ccc(F)cc4)nc(N4CCOCC4)n3)o2)ccc1Cl` [Compound 250C04], the IC50 at recombinant BACE enzyme came out at 7.1 µM. Also, the “% reduction of Aβ1-40 secretion” value in experiment [1] (at 25 µM) is reported as 0 (25 µM). `Oc1c(I)cc(I)cc1/C=N/Nc1nc(Nc2ccccc2)nc(Nc2ccccc2)n1` [Compound 201G06]: the IC50 on recombinant BACE enzyme was 25.5 µM. Further, in experiment [1] (at 5 µM), the “% reduction of Aβ1-40 secretion” value is listed as “No (5 µM)”.

On to `Oc1c(Cl)cc(Cl)cc1/C=N/Nc1nc(Nc2ccccc2)nc(Nc2ccccc2)n1` [Compound 201C08], for which the IC50 at recombinant BACE enzyme is 11.2 µM. The “% reduction of Aβ1-40 secretion” value in experiment [1] (at 5 µM) was 25% (5 µM). In the case of `COc1ccc(Nc2nc(N/N=C/c3cc(Br)cc(Br)c3O)nc(N3CCOCC3)n2)cc1` [Compound 251A09], on recombinant BACE enzyme, the IC50 came to 34.4 µM. For the compound `Oc1c(Br)cc(Br)cc1/C=N/Nc1nc(Nc2ccccc2)nc(N2CCCC2)n1` [Compound 251B07], the IC50 at recombinant BACE enzyme turned out to be 45.4 µM. On to `Cc1ccc(C)c(Nc2nc(N/N=C/c3cc(Br)c(O)c(Br)c3O)nc(N3CCOCC3)n2)c1` [Compound 205A04], for which the IC50 at recombinant BACE enzyme came out at 81.8 µM. Moreover, in experiment [1] (at 5 µM), the “% reduction of Aβ1-40 secretion” value was “No (5 µM)”. Take `O=[N+]([O-])c1cc(-c2ccc(/C=N/Nc3nc(N4CCOCC4)nc(N4CCOCC4)n3)o2)ccc1Cl` [Compound 251A10]: the IC50 on recombinant BACE enzyme worked out at 124 µM. With `Oc1c(Br)cc(/C=N/Nc2nc(Nc3ccccc3)nc(Nc3ccccc3)n2)cc1Br` [Compound 202E09], at recombinant BACE enzyme, the IC50 amounted to 53.9 µM. In addition, the “% reduction of Aβ1-40 secretion” value in experiment [1] (at 5 µM) is on record as 25% (5 µM). Consider `Cc1ccc(Cl)cc1-c1ccc(/C=N/Nc2nc(N3CCOCC3)nc(N3CCOCC3)n2)o1` [Compound 251C10], for which the IC50 on recombinant BACE enzyme is over 100 µM. As to `Clc1ccccc1-c1ccc(/C=N/Nc2nc(Nc3ccccc3)nc(Nc3ccccc3)n2)o1` [Compound 251F09], the concentration for half-maximal inhibition (IC50) on recombinant BACE enzyme was determined as 188 µM. Turning to `Oc1c(Br)cc(Br)cc1/C=N/Nc1nc(Nc2ccccc2)nc(Nc2ccccc2)n1` [Compound 251A07], the IC50 on recombinant BACE enzyme came out at 10.6 µM. As to `Oc1c(Cl)cc(Br)cc1/C=N/Nc1nc(Nc2ccccc2)nc(Nc2ccccc2)n1` [Compound 201G11], the 50% inhibitory concentration (IC50) on recombinant BACE enzyme worked out at 11.9 µM. The “% reduction of Aβ1-40 secretion” value in experiment [1] (at 5 µM) is listed as 26% (5 µM). Consider `O=C(O)c1cc(-c2ccc(C=NNc3nc(Nc4ccc(F)cc4)nc(N4CCCCC4)n3)o2)ccc1O` [Compound 250B05], for which the IC50 at recombinant BACE enzyme was 30.9 µM; in experiment [1], 10 to 20 µM.
